Experimental findings from patent US8815954B2, “Arginine heteromers for topical administration” (Revance Therapeutics, Inc., priority 2005, dated 2014) are described below.

The subject of experiment [1] is human forehead skin perfusion. Put plainly: Human forehead tissue perfusion by Laser Doppler Flowmeter after topical application. The class given is in vivo. The conditions noted are these: lip balm formulation 4.0 mg/ml topical, readings every 30 seconds for 5 minutes from one minute after application (n=55). The procedure:
Mean and standard error were assessed using Statview (Abacus Concepts, Berkeley, Calif.), with comparisons made using ANOVA repeated measures and significance determined at 95% with post-hoc testing using Fisher PLSD or Scheffe F-test. All procedures and analyses were performed by blinded observers.

Experiment [2] relates to murine skin. Nature of the experiment: In vivo cumulative efficacy for topical delivery of arginine across murine skin; morphological assessment of treated skin sections by image analysis. The arrangement: species or system C57 black 6 female mice. Conditions: mice, topical 200 μl once daily for 7 days in Cetaphil cream, dorsal skin harvested 24 hours after last treatment, H&E image analysis. On the procedure: In vivo cumulative efficacy for topical delivery of arginine across murine skin.
The potential for a heteromer of arginine to cross the skin and exert previously characterized benefits related to arginine/NOS activity was evaluated by examining arginine-vitamin E and arginine-palmitate heteromers in an animal model system. While both heteromers improve the lipid solubility relative to arginine alone and should increase transdermal flux, the vitamin E heteromer is also expected to afford additional functional benefits due to its anti-oxidant properties.
1. Arg-palmitate: 0.9996 g of arginine+palmitate were dissolved in 6 ml of jojoba oil (Essential Wholesale, Portland, Oreg.), then diluted with 6 ml (1:1 dilution) of Cetaphil cream.
2. Arg-vitamin E: 0.419 g of arginine+vitamin E were dissolved in 6 ml of deionized H2O then diluted with 6 ml (1:1 dilution) of Cetaphil cream.
Daily-dose topical treatments of metered 200 μl aliquots were prepared for treatments of Arg-palmitate, Arg-vitamin E, or Cetaphil control in 650 μl microcentrifuge tubes.
Animals (C57 black 6 female mice, Charles River Laboratories, Wilmington, Mass.) were anesthetized via inhalation of isoflurane mixed with oxygen and then injected with 0.5 ml rodent anesthetic cocktail (3.75 ml of 100 mg/ml Ketamine, 3.00 ml of 20 mg/ml Xylazine, and 23.25 ml of saline) intraperitoneally. The animals were supplemented with isoflurane as necessary. Treatment groups contained 4 mice each and the control group 3 mice. After being anesthetized, a 2.0 cm×2.0 cm dose site on the dorsum of each mouse was carefully shaved with a hair clipper on the first day of treatment application and animals underwent depilatory treatment in the same dorsal region using a rosin mixture (Surgiwax, Ardell International, Los Angeles, Calif.). Animals were anesthetized via inhalation of isoflurance only during the application of treatments in Cetaphil moisturizing cream (Galderma, Fort Worth, Tex.) and had metered 200 μl doses of the appropriate treatment applied to the cranial portion of dorsal back skin (selected because the mouse cannot reach this region with mouth or limbs). Animals remained under anesthesia for 1-2 minutes while the appropriate treatment was applied into the skin with small metal spatula. […]
High resolution digital images of each section were obtained using a Retiga 1300B camera (QImaging, Burnaby, BC, Canada). Images were analyzed using Image-Pro Plus analysis software (Media Cybernetics, Silver Springs, Md.) to determine morphological assessment and expressed as positive pixels. Mean and standard error were subsequently determined for each group using Statview software (Abacus, Berkeley, Calif.), with analysis of significance at 95% confidence in Wilcoxon signed ranks.

For the molecule `Cc1c(C)c2c(c(C)c1OC(=O)C(N)CCCNC(=N)N)CCC(C)(CCCC(C)CCCC(C)CCCC(C)C)O2` (centres unmarked) [Arg-Vitamin E], the “Forehead perfusion, Mean” value in experiment [1] is recorded as 8.016 tissue perfusion units. Besides, in experiment [2], the “Dermis: dermal thickness, Mean” value is listed as 35779 positive pixels; the “Epidermis: epidermal thickness, Mean” value was determined as 16475 positive pixels; the “Fat: fat thickness/density, Mean” value is given as 21386 positive pixels; the “Hair: hair length, Mean” value was found to be 18316 positive pixels.
